Measurements: patent US8586755B2, “Substituted nicotinamides as KCNQ2/3 modulators” (Grünenthal GmbH, priority 2009, dated 2013)

Molecular target: T1, KCNQ2/3 channels (Homo sapiens, UniProt O43525+O43526)
T1 construct: expressed in transfected cells
Assay: Fluorescence assay using a voltage sensitive dye (fluorimetry)
Assay type: cell-based
Settings: CHO-K1 cells expressing KCNQ2/3 channels; for EC50: agonistic activity; for Emax: read-out: Fluorimetry % efficacy (retigabine 50 μM = 100%)
Experimental: Pharmacological Experiments Fluorescence Assay Using a Voltage Sensitive Dye
Human CHO-K1 cells expressing KCNQ2/3 channels are cultivated adherently at 37° C., 5% CO2 and 95% humidity in cell culture bottles (e.g. 80 cm^2 TC flasks, Nunc) with DMEM-high glucose (Sigma Aldrich, D7777) including 10% FCS (PAN Biotech, e.g. 3302-P270521) or alternatively MEM Alpha Medium (1×, liquid, Invitrogen, #22571), 10% fetal calf serum (FCS) (Invitrogen, #10270-106, heat-inactivated) and the necessary selection antibiotics.
Before being sown out for the measurements, the cells are washed with a 1×DPBS buffer without Ca^2+/Mg^2+ (e.g. Invitrogen, #14190-094) and detached from the bottom of the culture vessel by means of Accutase (PAA Laboratories, #L11-007) (incubation with Accutase for 15 min at 37° C.). The cell count then present is determined using a CASY™ cell counter (TCC model, Schärfe System) in order subsequently to apply, depending on the density optimization for the individual cell line, 20,000-30,000 cells/well/100 μl of the described nutrient medium to 96-well measuring plates of the Corning™ CellBIND™ type (Flat Clear Bottom Black Polystyrene Microplates, #3340). Incubation is then carried out for one hour at room temperature, without gassing or adjusting the humidity, followed by incubation for 24 hours at 37° C., 5% CO2 and 95% humidity.
The voltage-sensitive fluorescent dye from the Membrane Potential Assay Kit (Red™ Bulk format part R8123 for FLIPR, MDS Analytical Technologies™) is prepared by dissolving the contents of a vessel Membrane Potential Assay Kit Red Component A in 200 ml of extracellular buffer (ES buffer, 120 mM NaCl, 1 mM KCl, 10 mM HEPES, 2 mM CaCl2, 2 mM MgCl2, 10 mM glucose; pH 7.4). After removal of the nutrient medium, the cells are washed with 200 μl of ES buffer, then covered with a layer of 100 μl of the dye solution prepared above and incubated for 45 min at room temperature with the exclusion of light.
The fluorescence measurements are carried out with a BMG Labtech FLUOstar™ BMG Labtech NOVOstar™ or BMG Labtech POLARstar™ instrument (525 nm excitation, 560 nm emission, Bottom Read mode). After incubation of the dye, 50 μl of the test substances in the desired concentrations, or 50 μl of ES buffer for control purposes, are introduced into separate cavities of the measuring plate and incubated for 30 min at room temperature while being shielded from light. The fluorescence intensity of the dye is then measured for 5 min and the fluorescence value F1 of each well is thus determined at a given, constant time. 15 μl of a […] KCl solution ([…]) are then added to each well. The change in fluorescence is subsequently measured until all the relevant measured values have been obtained (mainly 5-30 min). At a given time after KCl application, a fluorescence value F2 is determined, in this case at the time of the fluorescence peak.
For calculation, the fluorescence intensity F2 is compared with the fluorescence intensity F1, and the agonistic activity of the target compound on the potassium channel is determined therefrom. F2 and F1 are calculated as follows: […]
In order to determine whether a substance has agonistic activity,
A substance has an agonistic activity on the potassium channel when
[formula] it is possible to conclude that a target compound has agonistic activity if an increase in
[formula] is to be observed as the dosage of the target compound increases.
Calculations of EC50 values are carried out with the aid of ‘Prism v4.0’ software (GraphPad Software™).

Row | Compound | EC50 [nM] | Emax (retigabine 50 μM = 100%) [%] | Fluorimetry % efficacy (retigabine 50 μM = 100%) (retigabine 50 μM = 100%) [%]
1 | O=C(NCc1ccc2cccnc2c1)c1cccnc1SCCCc1ccc(F)cc1 [compound 150, 2-[3-(4-Fluorophenyl)-propylsulfanyl]-N-(quinolin-7-yl-methyl)-pyridine-3-carboxylic acid amide] | 1490 | 96 | 
2 | O=C(NCCc1ccccn1)c1cccnc1SCCCc1ccc(F)cc1 [compound 82, 2-[3-(4-Fluorophenyl)-propylsulfanyl]-N-(2-pyridine-2-yl-ethyl)-pyridine-3-carboxylic acid amide] | 6460 | 96 | 
3 | O=C(NCc1ccco1)c1cccnc1SCCC(F)(F)c1ccc(F)cc1 [compound 190, 2-[[3,3-Difluoro-3-(4-fluorophenyl)-propyl]sulfanyl]-N-(furan-2-yl-methyl)-pyridine-3-carboxylic acid amide] | 26 | 214 | 
4 | CC(C)(C)C(=O)CNC(=O)c1cccnc1SCCCc1ccc(F)cc1 [compound 125, N-(3,3-Dimethyl-2-oxo-butyl)-2-[3-(4-fluorophenyl)-propylsulfanyl]-pyridine-3-carboxylic acid amide] | 1400 | 99 | 
5 | Cc1ccc(CCCSc2ncccc2C(=O)NCc2cccs2)cc1C(F)(F)F [compound 113, 2-[3-[4-Methyl-3-(trifluoromethyl)-phenyl]-propylsulfanyl]-N-(thiophen-2-yl-methyl)-pyridine-3-carboxylic acid amide] | 5200 | 90 | 
6 | O=C(NCc1ccc(C(F)(F)F)cc1)c1cccnc1SCCCc1ccc(F)cc1 [compound 80, 2-[3-(4-Fluorophenyl)-propylsulfanyl]-N-[[4-(trifluoromethyl)-phenyl]-methyl]-pyridine-3-carboxylic acid amide] | 77 | 104 | 
7 | O=C(NCc1cccs1)c1cccnc1SCCCCc1ccc(F)c(F)c1 [compound 110, 2-[4-(3,4-Difluoro-phenyl)-butylsulfanyl]-N-(thiophen-2-yl-methyl)-pyridine-3-carboxylic acid amide] | 462 | 110 | 
8 | O=C(NCC1CCc2ccccc2C1)c1cccnc1SCCCc1ccc(F)cc1 (centres unmarked) [compound 119, 2-[3-(4-Fluorophenyl)-propylsulfanyl]-N-(1,2,3,4-tetrahydro-naphthalen-2-yl-methyl)-pyridine-3-carboxylic acid amide] |  | 30 | 
9 | CC(CCc1ccc(F)cc1)Sc1ncccc1C(=O)NCc1ccc(F)cc1 (centres unmarked) [compound 176, N-[(4-Fluorophenyl)-methyl]-2-[[3-(4-fluorophenyl)-1-methyl-propyl]sulfanyl]-pyridine-3-carboxylic acid amide] | 40 | 108 | 
10 | O=C(NCC1CCCCCCC1)c1cccnc1SCCCc1ccc(F)cc1 [compound 55, N-(Cyclooctyl-methyl)-2-[3-(4-fluorophenyl)-propylsulfanyl]-pyridine-3-carboxylic acid amide] | 227 | 149 | 
11 | O=C(NCc1cccs1)c1cccnc1SC1CCCC(c2ccccc2)C1 (centres unmarked) [compound 114, 2-[(3-Phenyl-cyclohexyl)sulfanyl]-N-(thiophen-2-yl-methyl)-pyridine-3-carboxylic acid amide] | 553 | 128 | 
12 | CC(C)CCNC(=O)c1cccnc1SCCCc1cccc(C(F)(F)F)c1 [compound 208, N-(3-Methyl-butyl)-2-[3-[3-(trifluoromethyl)phenyl]-propylsulfanyl]-pyridine-3-carboxylic acid amide] | 27 | 207 | 
13 | O=C(NCCCc1ccncc1)c1cccnc1SCCCc1ccc(F)cc1 [compound 95, 2-[3-(4-Fluorophenyl)-propylsulfanyl]-N-(3-pyridine-4-yl-propyl)-pyridine-3-carboxylic acid amide] | 2060 | 147 | 
14 | O=C(NCc1cccc(F)c1)c1cccnc1SCCCc1ccc(F)cc1 [compound 64, N-[(3-Fluorophenyl)-methyl]-2-[3-(4-fluorophenyl)-propylsulfanyl]-pyridine-3-carboxylic acid amide] | 49 | 100 | 
15 | CC(C)(CCNC(=O)c1cccnc1SCCCc1ccc(F)cc1)c1ccccc1 [compound 163, 2-[3-(4-Fluorophenyl)-propylsulfanyl]-N-(3-methyl-3-phenyl-butyl)-pyridine-3-carboxylic acid amide] | 537 | 89 | 
16 | CN(C)CCNC(=O)c1cccnc1SCCC(F)(F)c1ccc(F)cc1 [compound 198, 2-[[3,3-Difluoro-3-(4-fluorophenyl)-propyl]sulfanyl]-N-(2-dimethylaminoethyl)-pyridine-3-carboxylic acid amide] | 8840 | 110 | 
17 | CC(CCc1ccccc1)Sc1ncccc1C(=O)NCc1cccs1 (centres unmarked) [compound 105, 2-[(1-Methyl-3-phenyl-propyl)sulfanyl]-N-(thiophen-2-yl-methyl)-pyridine-3-carboxylic acid amide] | 479 | 166 | 
18 | O=C(NCC1CCCO1)c1cccnc1SCCCc1ccc(F)cc1 (centres unmarked) [compound 181, 2-[3-(4-Fluorophenyl)-propylsulfanyl]-N-(tetrahydro-furan-2-yl-methyl)-pyridine-3-carboxylic acid amide] | 1550 | 254 | 
19 | O=C(CCSc1ncccc1C(=O)NCc1cccs1)c1ccccc1 [compound 3] |  |  | 53
20 | O=C(NCC1CC2CCC1C2)c1cccnc1SCCCc1ccc(C(F)(F)F)cc1 (centres unmarked) [compound 34, N-(5-Bicyclo[2.2.1]heptanyl-methyl)-2-[3-[4-(trifluoromethyl)-phenyl]-propylsulfanyl]-pyridine-3-carboxylic acid amide] | 463 | 204 | 
21 | O=C(NCc1cccs1)c1cccnc1SCCCc1cccs1 [compound 104, N-(Thiophen-2-yl-methyl)-2-(3-thiophen-2-yl-propylsulfanyl)-pyridine-3-carboxylic acid amide] | 361 | 87 | 
22 | CCN1CCOc2ccc(CNC(=O)c3cccnc3SCCCc3ccc(F)cc3)cc21 [compound 161, N-[(4-Ethyl-3,4-dihydro-2H-[1,4]benzoxazin-6-yl)-methyl]-2-[3-(4-fluorophenyl)-propylsulfanyl]-pyridine-3-carboxylic acid amide] | 145 | 67 | 
23 | COc1cccc(CNC(=O)c2cccnc2SCCCc2ccc(F)cc2)c1 [compound 77, 2-[3-(4-Fluorophenyl)-propylsulfanyl]-N-[(3-methoxyphenyl)-methyl]-pyridine-3-carboxylic acid amide] | 233 | 118 | 
24 | CC(C)CCNC(=O)c1cccnc1SC(C)CCc1cccc(F)c1 (centres unmarked) [compound 202, 2-[[3-(3-Fluorophenyl)-1-methyl-propyl]sulfanyl]-N-(3-methyl-butyl)-pyridine-3-carboxylic acid amide] | 71 | 235 | 
25 | O=C(NCc1ccc(F)cc1)c1cccnc1SCCCc1cccc(C(F)(F)F)c1 [compound 207, N-[(4-Fluorophenyl)-methyl]-2-[3-[3-(trifluoromethyl)phenyl]-propylsulfanyl]-pyridine-3-carboxylic acid amide] | 34 | 119 | 
26 | O=C(NCc1ccc2c(c1)OCC2)c1cccnc1SCCCc1ccc(F)cc1 [compound 139, N-(2,3-Dihydro-benzofuran-6-yl-methyl)-2-[3-(4-fluorophenyl)-propylsulfanyl]-pyridine-3-carboxylic acid amide] | 101 | 81 | 
